Data reported in patent publication US11357752B2, “Carolacton and derivatives thereof for use in the treatment of cell proliferation disorders” (Helmholtz-Zentrum für Infektionsforschung GmbH, priority 2017, dated 2022).
In brackets after ≈: the same amount, converted by molar mass. Entries after “also recorded” stand apart in the source; their conditions may differ.

Key:
ecFoID = molecular target: T1, ecFoID (Escherichia coli, UniProt P24186); test: Surface plasmon resonance assay; type: binding, E. coli
T1 construct: His-tag (vector pHis-TEV); made in house; host or cells: E. coli BL21 (DE3)
Description: (§1) All surface plasmon resonance (SPR) experiments described in this study were performed on a Biacore X100 system. Different FoIDs with or without His-tag were coupled on CM5 sensor chips (GE Healthcare) by the amine coupling method using a kit from GE Healthcare Life Sciences (Freiburg, Germany). A pH scouting process was performed before protein immobilization to test the most appropriate buffer and the protein concentration for protein coupling. Finally, 20 μg/mL of ecFoID in 10 mM maleate buffer (pH 6.8), 30 μg/mL of ecFoID Q98H in 10 mM maleate buffer (pH 6.3), 40 μg/mL of ecFoID K54N in 10 mM maleate buffer (pH 5.8), 20 μg/mL of spFoID in 10 mM maleate buffer (pH 6.0) and 15 μg/mL of MTHFD2 (His-tag cleaved) in 10 mM maleate buffer (pH 6.8) were used for coupling. In the protein immobilization procedure, the contact time was calculated based on the pH scouting results to achieve -3000-5000 relative resonance units (RU). The buffer used in the SPR assays was 1×HBS-P buffer (10 mM HEPES pH 7.4, 150 mM NaCl, 0.05% Tween 20). The 1 mM stock solution of carolacton was prepared in 1×HBS-P buffer and diluted to different concentration ranges by two-fold serial dilution. In the SPR assay, the association time was 180 s and the dissociation time was 600 s. Data analysis was performed using the Biacore evaluation software. The SPR curves were exported to be re-plotted in OriginPro 2016 (OriginLab, Northampton, Mass., US).

ecFoID Q98H = molecular target: T2, ecFoID Q98H (Escherichia coli, UniProt P24186, Q98H); test: Surface plasmon resonance assay; type: binding, E. coli
T2 construct: made in house; host or cells: E. coli BL21 (DE3)
Description: as §1

ecFoID K54N = molecular target: T3, ecFoID K54N (Escherichia coli, UniProt P24186, K54N); test: Surface plasmon resonance assay; type: binding, E. coli
T3 construct: made in house; host or cells: E. coli BL21 (DE3)
Description: as §1

E. coli ToIC = test: Minimum inhibition concentration (MIC); type: cell-based; details: Escherichia coli, read-out: minimum inhibition concentration (MIC)
Source text: First, the minimum inhibition concentration (MIC) of carolacton on E. coli ToIC strain has been determined. We started to develop the resistant mutants on CASO agar plates supplemented with 4× the MIC concentration of carolacton as selection pressure. Different numbers of E. coli ToIC cells from 1×10^7 to 10^9 were spread on caso agar plate with carolacton, respectively. After 7 days, E. coli ToIC colonies, which were resistant to carolacton, started to form on the agar plates. The mutants picked were inoculated in liquid MHB medium supplemented with carolacton.

CO[C@H](CC(=O)O)[C@@H](C)C(=O)[C@H](C)/C=C(\C)[C@H]1OC(=O)[C@H](O)[C@H](O)/C=C/[C@H](C)CCC[C@@H]1C [Carolacton, carolacton]
Kd (ecFoID): 0.01 µM | Kd (ecFoID Q98H): 20 µM | binding (SPR), in words (ecFoID Q98H; ecFoID Q98H): weak binding | binding (SPR), in words (ecFoID K54N): no binding; also recorded: does not bind | MIC (E. coli ToIC): 0.125 µg/mL (≈ 0.267 µM)
